Values quoted from earlier work, collected in US20260272826A1 (THEAPRIN PHARMACEUTICALS, INC., priority 2017, published 2026).

What was measured:
[1] = tribasic
[2] = test system: thrombin stimulated thromboxane formulation in whole blood; details: theanine by itself
rats = details: rat, in vivo

Row | Structure (SMILES) | pKa 1 ([1]; first of pKa 1-3) | pKa 2 ([1]; second of pKa 1-3) | pKa 3 ([1]; third of pKa 1-3) | inhibition of thrombin stimulated thromboxane formulation [2] | solubility in water | LD50 toxicity (rats) [mg/kg]
1 | O=C(O)CC(O)(CC(=O)O)C(=O)O [Citric Acid, 2-hydroxypropane-1,2,3-tricarboxylic acid] | 5.21 | 4.28 | 2.92 |  |  | 
2 | CCNC(=O)CC[C@H](N)C(=O)O [L-theanine, N-ethyl-L-glutamine] |  |  |  | potent inhibitor | soluble in water | > 5000
